In ChEMBL document CHEMBL1147311, “Plant antimutagenic agents, 7. Structure and antimutagenic properties of cymobarbatol and 4-isocymobarbatol, new cymopols from green alga (Cymopolia barbata)” (J Nat Prod, 1989):
Calls of active or inactive are those of the source. The calls are words filed in the database; no cut-off is given here.

Experiments:
Salmonella typhimurium [1] = assay: Toxicity in Salmonella Typhimurium T98 at 75 to 600 ug/plate in presence of histidine; type: organism-based, Salmonella enterica subsp. enterica serovar Typhimurium
Salmonella typhimurium [2] = assay: Toxicity in Salmonella Typhimurium T100 at 75 to 600 ug/plate in presence of histidine; type: organism-based, Salmonella enterica subsp. enterica serovar Typhimurium
Salmonella typhimurium [3] = assay: Antimutagenic activity in Salmonella Typhimurium T100 assessed as inhibition of ethyl methanesulfonate-induced mutation at 32.5 to 300 ug/plate in presence of Ames S9 fractions; type: functional, Salmonella enterica subsp. enterica serovar Typhimurium
Salmonella typhimurium [4] = assay: Toxicity in Salmonella Typhimurium T98 at 75 to 300 ug/plate in presence of histidine; type: organism-based, Salmonella enterica subsp. enterica serovar Typhimurium
Salmonella typhimurium [5] = assay: Toxicity in Salmonella Typhimurium T100 at 75 to 300 ug/plate in presence of histidine; type: organism-based, Salmonella enterica subsp. enterica serovar Typhimurium
Salmonella typhimurium [6] = assay: Antimutagenic activity in Salmonella Typhimurium T98 assessed as inhibition of 2-aminoanthracene-induced mutation at 300 ug/plate; type: functional, organism-based; conditions: Salmonella enterica subsp. enterica serovar Typhimurium
Salmonella typhimurium [7] = assay: Antimutagenic activity in Salmonella Typhimurium T98 assessed as inhibition of 2-aminoanthracene-induced mutation at 150 ug/plate; type: functional, organism-based; conditions: Salmonella enterica subsp. enterica serovar Typhimurium
Salmonella typhimurium [8] = assay: Antimutagenic activity in Salmonella Typhimurium T98 assessed as inhibition of 2-aminoanthracene-induced mutation at 75 ug/plate; type: functional, organism-based; conditions: Salmonella enterica subsp. enterica serovar Typhimurium

SMILES	Activity (Salmonella typhimurium [1])	Activity (Salmonella typhimurium [2])	inhibition (INH) (Salmonella typhimurium [3]) [%]	Activity (Salmonella typhimurium [4])	Activity (Salmonella typhimurium [5])	Activity (Salmonella typhimurium [6])	Activity (Salmonella typhimurium [7])	Activity (Salmonella typhimurium [8])
CC(C)=CCC/C(C)=C/Cc1cc(O)c(Br)cc1O [CYMOPOL]	Toxic	Toxic	–	–	–	–	–	–
CC1(C)[C@@H](Br)CC[C@@]2(C)Oc3cc(Br)c(O)cc3C[C@@H]12 [CYMOBARBATOL]	–	–	80	Non-toxic	Non-toxic	Active	Active	–
CC1(C)[C@@H](Br)CC[C@]2(C)Oc3cc(Br)c(O)cc3C[C@@H]12	–	–	–	Non-toxic	Non-toxic	Active	Active	Active
